Literature values as cited in patent publication EP3173421A1, “PEPTIDIC COMPOUNDS USEFUL AS ANTIBACTERIAL AGENTS” (Universitat de Barcelona, priority 2015, dated 2017).
Where a SMILES comes first, the peptide text is derived from it. Bridges are numbered along the chain shown (N, C = ends). Where no end group is shown, it is not given here. [ ]: non-standard residue; d: D form. The star is where a group is joined. ξ: configuration not given here. Thr(3ξ) = CC(O)[C@H](N)C(=O)O; Decanoyl = CCCCCCCCCC(=O)*; X1 = CC[C@H](C)CCCCC(=O)*; Nle = CCCC[C@H](N)C(=O)O; Dab = NCC[C@H](N)C(=O)O

What was measured:
[1] = after 6h; kidneys versus serum; cited from earlier work
[2] = tested on: Pseudomonas aeruginosa ATCC 9027; conditions: P. aeruginosa ATTC9027 (non-resistant); comparative examples, extracted from Rabanal et al. 2015; cited from earlier work
Escherichia coli VAL 5 = conditions: E coli VAL 5; comparative examples, extracted from Rabanal et al. 2015; cited from earlier work
Escherichia coli NDM-1 = conditions: E coli NDM-1; comparative examples, extracted from Rabanal et al. 2015; cited from earlier work
Escherichia coli VAL 10 = conditions: E coli VAL10; comparative examples, extracted from Rabanal et al. 2015; cited from earlier work
[3] = tested on: Staphylococcus aureus ATTC6538; conditions: S. aureus ATTC6538; comparative examples, extracted from Rabanal et al. 2015; cited from earlier work
[4] = tested on: Pseudomonas aeruginosa 38a; conditions: P. aeruginosa 38a; comparative examples, extracted from Rabanal et al. 2015; cited from earlier work
Escherichia coli MAC21a = conditions: E coli MAC21 a; comparative examples, extracted from Rabanal et al. 2015; cited from earlier work
[5] = tested on: Escherichia coli ATCC 8739; conditions: E coli ATCC8739 (non-resistant); comparative examples, extracted from Rabanal et al. 2015; cited from earlier work
[6] = tested on: Pseudomonas aeruginosa 36a; conditions: P. aeruginosa 36a; comparative examples, extracted from Rabanal et al. 2015; cited from earlier work

Row | Molecule | concentration in kidneys as multiple of the serum concentration [1] | MIC [2] [µg/mL] | MIC (Escherichia coli VAL 5) [µg/mL] | MIC (Escherichia coli NDM-1) [µg/mL] | MIC (Escherichia coli VAL 10) [µg/mL] | MIC [3] [µg/mL] | MIC [4] [µg/mL] | MIC (Escherichia coli MAC21a) [µg/mL] | MIC [5] [µg/mL] | MIC [6] [µg/mL]
1 | CC[C@H](C)CCCCC(=O)N[C@@H](CCN)C(=O)N[C@H](C(=O)N[C@@H](CCN)C(=O)N[C@H]1CCNC(=O)[C@H](C(C)O)NC(=O)[C@H](CCN)NC(=O)[C@H](CCN)NC(=O)[C@H](CC(C)C)NC(=O)[C@@H](Cc2ccccc2)NC(=O)[C@H](CCN)NC1=O)C(C)O (stereo partly shown) [polymyxin B (8d), Polymyxin B] (X1-[Dab][Thr(3ξ)][Dab][Dab][Dab][dF]L[Dab][Dab][Thr(3ξ)]; lactam 4-C) | more than 30 | – | – | – | – | – | – | – | – | –
2 | Decanoyl-[Dab]T[Dab]C[Dab][dF][Nle][Dab][Dab][dC] (cysteine pairing not given here) [Comparative Example 8c] | – | 1 | 0.5 | 0.5 | 0.5 | 4 | 0.5 | 0.5 | 2 | –
3 | polymyxin E (colistin) [polymyxin E (colistin) (8e)] | – | 1 | 0.25 | 0.5 | 0.5 | – | 1 | 0.25 | – | 1
